Source: patent US12319672B2, “Alpha-D-galactopyranoside derivatives” (Idorsia Pharmaceuticals Ltd, priority 2019, dated 2025)
pIC50: −log10 of the molar value. One block for each compound: values may come before it.

Key:
human Gal-1 (hGal-1) = assay: Competitive binding assay: binding of biotinylated hGal-1 to microplate-adsorbed asialofetuin (ASF); details: Activities on hGal-1; mean values of several measurements
How it was run: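 For hGal-1, a variant with all six cysteines replaced by serines is preferred. Either galectin, biotinylated at 300-1000 ng/mL, competes with compound for microplate-bound ASF over 3 h at 4° C; peroxidase/ABTS detection gives IC50, averaged.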

human Gal-3 (hGal-3) = human Gal-3 (hGal-3) (Homo sapiens (Human), UniProt P17931); assay: Competitive binding assay: binding of biotinylated hGal-3 to microplate-adsorbed asialofetuin (ASF); details: Activity on hGal-3; mean values of several measurements
human Gal-3 (hGal-3), sequence (P17931 whole entry): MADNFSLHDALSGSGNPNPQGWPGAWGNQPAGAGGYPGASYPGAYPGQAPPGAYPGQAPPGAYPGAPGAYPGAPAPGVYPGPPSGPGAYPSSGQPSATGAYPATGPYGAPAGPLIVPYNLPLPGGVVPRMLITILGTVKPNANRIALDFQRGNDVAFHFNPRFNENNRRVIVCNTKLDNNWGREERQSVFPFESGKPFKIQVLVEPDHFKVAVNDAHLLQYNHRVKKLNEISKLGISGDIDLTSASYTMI
How it was run: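 Compounds in DMSO dilution series competed with 300-1000 ng/mL biotinylated hGal-3 for asialofetuin adsorbed on the plate (3 h, 4° C). Streptavidin-peroxidase at 80 ng/mL (1 h, 4° C) with ABTS gave a spectrophotometric read-out, and IC50 was reported as the mean of repeat runs.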

human Gal-1 (hGal-1), sequence (P09382 2-135 limits assumed): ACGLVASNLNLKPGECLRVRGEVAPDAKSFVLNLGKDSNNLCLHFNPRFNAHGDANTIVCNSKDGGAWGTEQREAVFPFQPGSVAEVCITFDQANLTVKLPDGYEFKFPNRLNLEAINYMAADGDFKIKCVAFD

Structure (SMILES): CO[C@@H]1[C@@H](n2cc(-c3ccc(Cl)c(F)c3)nn2)[C@@H](O)[C@@H](CO)O[C@@H]1Cc1cc(C2CCCCC2)on1 [Ex 1.174]
pIC50 (human Gal-1 (hGal-1)): 4.73
pIC50 (human Gal-3 (hGal-3)): 6.05

Structure (SMILES): CO[C@@H]1[C@@H](n2cc(-c3ccc(F)c(F)c3F)nn2)[C@@H](O)[C@@H](CO)O[C@@H]1Cc1cc(C2CCCCC2)on1 [Ex 1.175]
pIC50 (human Gal-1 (hGal-1)): 5.32
pIC50 (human Gal-3 (hGal-3)): 6.51

Structure (SMILES): CO[C@@H]1[C@@H](n2cc(-c3cc(F)c(Cl)c(F)c3)nn2)[C@@H](O)[C@@H](CO)O[C@@H]1Cc1cc(C2CCCCC2)on1 [Ex 1.176]
pIC50 (human Gal-1 (hGal-1)): < 4.00
pIC50 (human Gal-3 (hGal-3)): 6.06

Structure (SMILES): CO[C@@H]1[C@@H](n2cc(-c3ccc(C)c(F)c3F)nn2)[C@@H](O)[C@@H](CO)O[C@@H]1Cc1cc(C2CCCCC2)on1 [Ex 1.177]
pIC50 (human Gal-1 (hGal-1)): 4.19
pIC50 (human Gal-3 (hGal-3)): 6.74

Structure (SMILES): CO[C@@H]1[C@@H](n2cc(-c3ccc(Br)c(F)c3F)nn2)[C@@H](O)[C@@H](CO)O[C@@H]1Cc1cc(C2CCOCC2)on1 [Ex 1.182]
pIC50 (human Gal-1 (hGal-1)): 5.33
pIC50 (human Gal-3 (hGal-3)): 7.09

Structure (SMILES): CO[C@@H]1[C@@H](n2cc(-c3cc(F)c(Cl)c(F)c3)nn2)[C@@H](O)[C@@H](CO)O[C@@H]1Cc1cc(C2CCOCC2)on1 [Ex 1.185]
pIC50 (human Gal-1 (hGal-1)): 5.84
pIC50 (human Gal-3 (hGal-3)): 6.72

Structure (SMILES): CO[C@@H]1[C@@H](n2cc(-c3ccc(C)c(F)c3F)nn2)[C@@H](O)[C@@H](CO)O[C@@H]1Cc1cc(C2CCOCC2)on1 [Ex 1.186]
pIC50 (human Gal-1 (hGal-1)): 5.21
pIC50 (human Gal-3 (hGal-3)): 7.07

Structure (SMILES): CO[C@@H]1[C@@H](n2cc(-c3cc(F)c(Cl)c(F)c3)nn2)[C@@H](O)[C@@H](CO)O[C@@H]1Cc1cc(C(C)(C)C)on1 [Ex 1.194]
pIC50 (human Gal-1 (hGal-1)): 5.45
pIC50 (human Gal-3 (hGal-3)): 6.74

Structure (SMILES): CO[C@@H]1[C@@H](n2cc(-c3ccc(C)c(F)c3F)nn2)[C@@H](O)[C@@H](CO)O[C@@H]1Cc1cc(C(C)(C)C)on1 [Ex 1.195]
pIC50 (human Gal-1 (hGal-1)): 5.48
pIC50 (human Gal-3 (hGal-3)): 7.22

Structure (SMILES): CO[C@@H]1[C@@H](n2cc(-c3cc(F)c(F)c(F)c3)nn2)[C@@H](O)[C@@H](CO)O[C@@H]1Cc1cc(C2CCN(S(=O)(=NC(C)C)C(C)C)CC2)on1 (some centres unmarked) [Ex 1.197]
pIC50 (human Gal-1 (hGal-1)): 5.66
pIC50 (human Gal-3 (hGal-3)): 6.96

Structure (SMILES): CCOC(=O)N1CCC(c2cc(C[C@H]3O[C@H](CO)[C@H](O)[C@H](n4cc(-c5ccc(Br)c(F)c5F)nn4)[C@H]3OC)no2)CC1 [Ex 1.198]
pIC50 (human Gal-1 (hGal-1)): 5.44
pIC50 (human Gal-3 (hGal-3)): 7.33

Structure (SMILES): CCOC(=O)N1CCC(c2cc(C[C@H]3O[C@H](CO)[C@H](O)[C@H](n4cc(-c5cc(F)cc(Cl)c5)nn4)[C@H]3OC)no2)CC1 [Ex 1.200]
pIC50 (human Gal-1 (hGal-1)): 5.82
pIC50 (human Gal-3 (hGal-3)): 6.92

Structure (SMILES): CCOC(=O)N1CCC(c2cc(C[C@H]3O[C@H](CO)[C@H](O)[C@H](n4cc(-c5ccc(C)c(F)c5)nn4)[C@H]3OC)no2)CC1 [Ex 1.201]
pIC50 (human Gal-1 (hGal-1)): 5.53
pIC50 (human Gal-3 (hGal-3)): 7.17

Structure (SMILES): CCOC(=O)N1CCC(c2cc(C[C@H]3O[C@H](CO)[C@H](O)[C@H](n4cc(-c5cc(F)c(C)c(F)c5)nn4)[C@H]3OC)no2)CC1 [Ex 1.202]
pIC50 (human Gal-1 (hGal-1)): 5.40
pIC50 (human Gal-3 (hGal-3)): 7.48

Structure (SMILES): CCOC(=O)N1CCC(c2cc(C[C@H]3O[C@H](CO)[C@H](O)[C@H](n4cc(-c5ccc(Cl)c(F)c5F)nn4)[C@H]3OC)no2)CC1 [Ex 1.203]
pIC50 (human Gal-1 (hGal-1)): 5.75
pIC50 (human Gal-3 (hGal-3)): 7.59

Structure (SMILES): CC(=O)O[C@@H]1[C@@H](n2cc(-c3ccc(C)c(F)c3F)nn2)[C@@H](O)[C@@H](CO)O[C@@H]1Cc1cc(C(C)(C)C)on1 [Ex 1.204]
pIC50 (human Gal-1 (hGal-1)): 4.76
pIC50 (human Gal-3 (hGal-3)): 7.39

Structure (SMILES): Cc1ccc(-c2cn([C@H]3[C@@H](O)[C@@H](CO)O[C@H](Cc4cc(C(C)(C)C)on4)[C@@H]3O)nn2)c(F)c1F [Ex 1.205]
pIC50 (human Gal-1 (hGal-1)): 5.05
pIC50 (human Gal-3 (hGal-3)): 7.39

Structure (SMILES): CO[C@@H]1[C@@H](n2cc(-c3cc(F)c(F)c(F)c3)nn2)[C@@H](O)[C@@H](CO)O[C@@H]1Cc1cc(C(C)(C)C)no1 [Ex 1.206]
pIC50 (human Gal-1 (hGal-1)): 5.87
pIC50 (human Gal-3 (hGal-3)): 7.08

Structure (SMILES): CCOC(=O)CC(C)(C)c1cc(C[C@H]2O[C@H](CO)[C@H](O)[C@H](n3cc(-c4cc(F)c(F)c(F)c4)nn3)[C@H]2OC)on1 [Ex 1.208]
pIC50 (human Gal-1 (hGal-1)): 5.79
pIC50 (human Gal-3 (hGal-3)): 6.89

Structure (SMILES): CO[C@@H]1[C@@H](n2cc(-c3cc(F)c(F)c(F)c3)nn2)[C@@H](O)[C@@H](CO)O[C@@H]1Cc1cc(C2(OC)CCCC2)no1 [Ex 1.209]
pIC50 (human Gal-1 (hGal-1)): 5.44
pIC50 (human Gal-3 (hGal-3)): 6.59

Structure (SMILES): CO[C@@H]1[C@@H](n2cc(-c3cc(F)c(F)c(F)c3)nn2)[C@@H](O)[C@@H](CO)O[C@@H]1Cc1cc(C2(OC)CCCCC2)no1 [Ex 1.210]
pIC50 (human Gal-1 (hGal-1)): 5.56
pIC50 (human Gal-3 (hGal-3)): 6.54

Second part, the compound after the results:

pIC50 (human Gal-1 (hGal-1)): 4.99
pIC50 (human Gal-3 (hGal-3)): 6.01
Structure (SMILES): CO[C@@H]1[C@@H](n2cc(-c3cc(F)cc(Cl)c3)nn2)[C@@H](O)[C@@H](CO)O[C@@H]1Cc1cc(C2CCCCC2)on1 [Ex 1.178]

pIC50 (human Gal-1 (hGal-1)): 4.96
pIC50 (human Gal-3 (hGal-3)): 6.82
Structure (SMILES): CO[C@@H]1[C@@H](n2cc(-c3cc(F)c(C)c(F)c3)nn2)[C@@H](O)[C@@H](CO)O[C@@H]1Cc1cc(C2CCOCC2)on1 [Ex 1.179]

pIC50 (human Gal-1 (hGal-1)): 5.31
pIC50 (human Gal-3 (hGal-3)): 6.74
Structure (SMILES): CO[C@@H]1[C@@H](n2cc(-c3ccc(C)c(F)c3)nn2)[C@@H](O)[C@@H](CO)O[C@@H]1Cc1cc(C2CCOCC2)on1 [Ex 1.180]

pIC50 (human Gal-1 (hGal-1)): 5.09
pIC50 (human Gal-3 (hGal-3)): 7.25
Structure (SMILES): CO[C@@H]1[C@@H](n2cc(-c3ccc(Cl)c(F)c3F)nn2)[C@@H](O)[C@@H](CO)O[C@@H]1Cc1cc(C2CCOCC2)on1 [Ex 1.181]

pIC50 (human Gal-1 (hGal-1)): 5.28
pIC50 (human Gal-3 (hGal-3)): 6.55
Structure (SMILES): CO[C@@H]1[C@@H](n2cc(-c3ccc(Cl)c(F)c3)nn2)[C@@H](O)[C@@H](CO)O[C@@H]1Cc1cc(C2CCOCC2)on1 [Ex 1.183]

pIC50 (human Gal-1 (hGal-1)): 5.93
pIC50 (human Gal-3 (hGal-3)): 6.89
Structure (SMILES): CO[C@@H]1[C@@H](n2cc(-c3ccc(F)c(F)c3F)nn2)[C@@H](O)[C@@H](CO)O[C@@H]1Cc1cc(C2CCOCC2)on1 [Ex 1.184]

pIC50 (human Gal-1 (hGal-1)): 5.22
pIC50 (human Gal-3 (hGal-3)): 6.35
Structure (SMILES): CO[C@@H]1[C@@H](n2cc(-c3cc(F)cc(Cl)c3)nn2)[C@@H](O)[C@@H](CO)O[C@@H]1Cc1cc(C2CCOCC2)on1 [Ex 1.187]

pIC50 (human Gal-1 (hGal-1)): 5.12
pIC50 (human Gal-3 (hGal-3)): 6.74
Structure (SMILES): CO[C@@H]1[C@@H](n2cc(-c3cc(F)c(C)c(F)c3)nn2)[C@@H](O)[C@@H](CO)O[C@@H]1Cc1cc(C(C)(C)C)on1 [Ex 1.188]

pIC50 (human Gal-1 (hGal-1)): 5.27
pIC50 (human Gal-3 (hGal-3)): 6.77
Structure (SMILES): CO[C@@H]1[C@@H](n2cc(-c3ccc(C)c(F)c3)nn2)[C@@H](O)[C@@H](CO)O[C@@H]1Cc1cc(C(C)(C)C)on1 [Ex 1.189]

pIC50 (human Gal-1 (hGal-1)): 5.34
pIC50 (human Gal-3 (hGal-3)): 7.15
Structure (SMILES): CO[C@@H]1[C@@H](n2cc(-c3ccc(Cl)c(F)c3F)nn2)[C@@H](O)[C@@H](CO)O[C@@H]1Cc1cc(C(C)(C)C)on1 [Ex 1.190]

pIC50 (human Gal-1 (hGal-1)): 5.44
pIC50 (human Gal-3 (hGal-3)): 6.82
Structure (SMILES): CO[C@@H]1[C@@H](n2cc(-c3ccc(Br)c(F)c3F)nn2)[C@@H](O)[C@@H](CO)O[C@@H]1Cc1cc(C(C)(C)C)on1 [Ex 1.191]

pIC50 (human Gal-1 (hGal-1)): 5.73
pIC50 (human Gal-3 (hGal-3)): 6.70
Structure (SMILES): CO[C@@H]1[C@@H](n2cc(-c3ccc(Cl)c(F)c3)nn2)[C@@H](O)[C@@H](CO)O[C@@H]1Cc1cc(C(C)(C)C)on1 [Ex 1.192]

pIC50 (human Gal-1 (hGal-1)): 5.90
pIC50 (human Gal-3 (hGal-3)): 6.92
Structure (SMILES): CO[C@@H]1[C@@H](n2cc(-c3ccc(F)c(F)c3F)nn2)[C@@H](O)[C@@H](CO)O[C@@H]1Cc1cc(C(C)(C)C)on1 [Ex 1.193]

pIC50 (human Gal-1 (hGal-1)): 5.61
pIC50 (human Gal-3 (hGal-3)): 6.40
Structure (SMILES): CO[C@@H]1[C@@H](n2cc(-c3cc(F)cc(Cl)c3)nn2)[C@@H](O)[C@@H](CO)O[C@@H]1Cc1cc(C(C)(C)C)on1 [Ex 1.196]

pIC50 (human Gal-1 (hGal-1)): 5.22
pIC50 (human Gal-3 (hGal-3)): 7.28
Structure (SMILES): CCOC(=O)N1CCC(c2cc(C[C@H]3O[C@H](CO)[C@H](O)[C@H](n4cc(-c5cc(F)c(Cl)c(F)c5)nn4)[C@H]3OC)no2)CC1 [Ex 1.199]

pIC50 (human Gal-1 (hGal-1)): 5.94
pIC50 (human Gal-3 (hGal-3)): 6.96
Structure (SMILES): CO[C@@H]1[C@@H](n2cc(-c3cc(F)c(F)c(F)c3)nn2)[C@@H](O)[C@@H](CO)O[C@@H]1Cc1cc(C(C)(C)CO)no1 [Ex 1.207]
